The record followed here is ChEMBL document CHEMBL4038279, “Design and characterization of opioid ligands based on cycle-in-macrocycle scaffold” (Bioorg Med Chem, 2017).

The target of test [1] is Mu-type opioid receptor (Homo sapiens, UniProt P35372). Put plainly: Displacement of [3H]DAMGO from recombinant human mu opioid receptor expressed in CHO cell membranes after 120 mins by liquid scintillation counter analysis. (Displacement assays read how much labelled ligand stays bound in the presence of the test substance.)
Mu-type opioid receptor, sequence (P35372 whole entry): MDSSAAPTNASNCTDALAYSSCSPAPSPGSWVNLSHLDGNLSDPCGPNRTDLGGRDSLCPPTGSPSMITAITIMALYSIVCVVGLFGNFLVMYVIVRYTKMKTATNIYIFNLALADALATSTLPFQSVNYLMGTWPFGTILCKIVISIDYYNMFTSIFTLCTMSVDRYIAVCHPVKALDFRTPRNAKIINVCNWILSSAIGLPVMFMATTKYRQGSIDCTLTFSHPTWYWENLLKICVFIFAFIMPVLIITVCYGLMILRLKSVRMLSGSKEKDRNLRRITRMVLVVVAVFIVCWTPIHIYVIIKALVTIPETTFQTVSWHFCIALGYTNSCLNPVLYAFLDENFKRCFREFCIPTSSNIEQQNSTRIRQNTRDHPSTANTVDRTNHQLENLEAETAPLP
The target in test [2] is Kappa-type opioid receptor (Homo sapiens, UniProt P41145). Put plainly: Displacement of [3H]U-69593 from recombinant human kappa opioid receptor expressed in CHO cell membranes after 120 mins by liquid scintillation counter analysis.
Kappa-type opioid receptor, sequence (P41145 whole entry): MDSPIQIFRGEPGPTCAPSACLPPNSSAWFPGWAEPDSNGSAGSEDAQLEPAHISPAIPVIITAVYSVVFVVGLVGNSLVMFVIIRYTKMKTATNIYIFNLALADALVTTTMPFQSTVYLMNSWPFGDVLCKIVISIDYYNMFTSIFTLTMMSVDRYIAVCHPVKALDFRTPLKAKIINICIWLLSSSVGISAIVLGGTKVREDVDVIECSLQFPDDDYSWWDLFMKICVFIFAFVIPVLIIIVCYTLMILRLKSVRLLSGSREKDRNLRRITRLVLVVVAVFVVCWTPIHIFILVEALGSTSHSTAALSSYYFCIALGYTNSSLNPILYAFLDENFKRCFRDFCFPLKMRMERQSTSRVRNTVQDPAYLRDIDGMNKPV
In test [3] the target is Delta-type opioid receptor (Homo sapiens, UniProt P41143). The experiment in a line: Displacement of [3H]deltorphin-2 from recombinant human delta opioid receptor expressed in CHO cell membranes after 120 mins by liquid scintillation counter analysis.
Delta-type opioid receptor, sequence (P41143 whole entry): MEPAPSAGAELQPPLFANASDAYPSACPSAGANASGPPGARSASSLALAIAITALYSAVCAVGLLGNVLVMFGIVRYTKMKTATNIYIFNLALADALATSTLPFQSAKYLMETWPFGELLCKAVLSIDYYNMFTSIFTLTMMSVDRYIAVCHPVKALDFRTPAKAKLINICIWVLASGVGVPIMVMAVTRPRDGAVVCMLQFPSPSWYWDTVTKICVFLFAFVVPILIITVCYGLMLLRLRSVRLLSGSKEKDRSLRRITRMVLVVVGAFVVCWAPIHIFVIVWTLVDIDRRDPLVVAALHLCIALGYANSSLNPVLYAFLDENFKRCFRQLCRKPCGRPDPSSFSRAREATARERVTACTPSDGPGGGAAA

pKi: −log10 of the molar value. Where a SMILES comes first, the peptide text is derived from it. Bridges are numbered along the chain shown (N, C = ends). [ ]: non-standard residue; d: D form.

The term pKi denotes −log10 of the Ki, conventionally taken in molar units. As for `NC(=O)[C@@H]1CC(=O)NCCCC[C@@H](NC(=O)[C@@H](N)Cc2ccc(O)cc2)C(=O)N[C@@H](Cc2ccccc2)C(=O)N2CCCC[C@H]2C(=O)N1`, the values for the pKi in test [1], in test [2] and in test [3] were 8.50, 5.17 and 7.30, respectively.
The corresponding values for `NC(=O)[C@@H]1CC(=O)NCCCC[C@@H](NC(=O)[C@@H](N)Cc2ccc(O)cc2)C(=O)N[C@@H](Cc2ccccc2)C(=O)N2CCC[C@H]2C(=O)N1` are 9.34, 6.05 and 7.07.
On the same counts, the results for `NC(=O)[C@@H]1CC(=O)NCCCC[C@@H](NC(=O)[C@@H](N)Cc2ccc(O)cc2)C(=O)N[C@@H](Cc2ccccc2)C(=O)N2CCC(CC2)C(=O)N1` are 8.94, 5.26 and 7.12.
For the compound `NC(=O)[C@@H]1CC(=O)NCCCC[C@@H](NC(=O)[C@@H](N)Cc2ccc(O)cc2)C(=O)N[C@@H](Cc2ccccc2)C(=O)N2CCC[C@H](C2)C(=O)N1`, the values for the negative-log Ki (pKi) in test [1], in test [2] and in test [3] were 9.05, 5.33 and 7.17, respectively.
On the same counts, the results for `NC(=O)[C@@H]1CC(=O)NCCCC[C@@H](NC(=O)[C@@H](N)Cc2ccc(O)cc2)C(=O)N[C@@H](Cc2ccccc2)C(=O)N[C@@H](Cc2ccccc2)C(=O)N1` (H-Y[dK]FFD-NH2; lactam 2-5) are 9.25, 8.63 and 6.55.
